Results: patent US9913914B2, “Cell transport” (priority 2013, dated 2018)
No end group written: not given here. *: point of attachment. FITC = O=C1OC2(c3ccc(O)cc3Oc3cc(O)ccc32)c2ccc(NC(=S)*)cc21

Columns and labels:
[1] = test system: PKA-dependent process of Dictyostelium aggregation; experiment: Aggregation of starved Dictyostelium cultures (PKA-dependent); assay type: cell-based, Dictyostelium discoideum; settings: 10 micromolar
Experimental: FIG. 6. Cupid can transport small molecule cargo into cells. Starved Dictyostelium cultures were treated with no peptide (A), cupid B peptide (B), PKI peptide (C) and Cupid B-PKI peptide (D) and analysed for aggregation.
Upon starvation Dictyostelium initiates a developmental program leading to the aggregation of free-living amoebae. Genetic research has uncovered the crucial role that cyclic adenosine monophosphate (cAMP) plays in orchestrating as an extracellular chemoattractant in the initial aggregation process through Dictyostelium cAMP-dependent Protein Kinase (DdPKA). DdPKA can be inhibited by PKI, a 20 amino acid peptide sequence derived from an inhibitor of PKA, by PKI binding directly to the catalytic unit of PKA.
By creating a Cupid B-PKI fusion protein we aimed to establish that it prevents starving Dictyostelium cells from aggregating in vivo.

[2] = test system: Dictyostelium discoideum amoeba cells; assay type: cell-based; settings: for entry of fluorescently labeled peptide into cells: 10 μM, 1 hour, Dictyostelium cell; for time for half-maximal permeation: FITC-labelled peptide at 20 micromolar, Dictyostelium cells
Experimental: (§1) Peptides were labelled with Fluorescein isothiocyanate (FITC) using a FITC labeling kit as per instructions (Pierce, UK). When added to cell cultures the labeled peptides were visualized using a fluorescent microscope by exciting the FITC with a 488 nm spectral line, argon-ion laser (Excitation wavelength of 494 nm and an Emission wavelength of 518 nm).
AX2 wild type Dictyostelium cells were grown on SM agar plates seeded with Aerobacter aerogenes bacteria (also known as Klebsiella aerogenes) as a food source.
Cupid A ([…]; SEQ ID NO: 2) and Cupid B ([…]; SEQ ID NO: 1) were chemically synthesized labelled with FITC at the amino terminal. The peptides were added to cultured eukaryotic cells of Dictyostelium discoideum amoeba for varying amounts of time up to 2 hours. Cells were then washed and prepared for examination under a fluorescent microscope (FIG. 1). The time courses of permeation were compared to the class 3 CPP, the Antennapedia peptide, pANT which was also labelled with FITC in chemical synthesis (FIG. 2).

human fibroblasts = experiment: Permeation of FITC-labelled peptide into human fibroblasts; assay type: cell-based; settings: 10 μM, 1 hour, Human Fibroblast cell
Text: as §1

[3] = test system: human embryonic kidney cells; experiment: Permeation of FITC-labelled peptide into human embryonic kidney cells; assay type: cell-based; settings: 10 μM, 1 hour, human kidney cell
Text: as §1

Substance | effect on Dictyostelium aggregation [1] | entry of fluorescently labeled peptide into cells [2] | time for half-maximal permeation [2] [min] | reversibility of permeation ([2]; media containing FITC-peptide replaced with peptide-free media) | entry of fluorescently labeled peptide into cells (human fibroblasts) | entry of fluorescently labeled peptide into cells [3]
Cupid B peptide: RRVQIWFQNKRAKVKR (SEQ ID NO: 1), cell penetrating peptide from Dictyostelium discoideum (listed as Dictyostelium discoideum) | neither the Cupid B peptide nor the PKI peptide alone have any effect on aggregation | – | – | – | – | –
FITC-Cupid A: Cupid A (SEQ ID NO: 2) chemically synthesized, labelled with FITC at the amino terminal ({FITC}-RSVQIWFQNRRAKAR; listed as Dictyostelium discoideum) | – | entering cultured cells | 28 | – | – | –
FITC-Cupid B: Cupid B (SEQ ID NO: 1) chemically synthesized, labelled with FITC at the amino terminal ({FITC}-RRVQIWFQNKRAKVKR; listed as Dictyostelium discoideum) | – | entering cultured cells | 17 | reversible | entering cultured cells | entering cultured cells
